Laboratory results taken from patent US20160143946A1, “COMBINATION THERAPIES FOR TREATING CANCER” (priority 2014, published 2016).
Where two headings read alike, the source gives them in different places. One block for each compound: values may come before it.

Tests used:
Format in all cases: cell-based, human
[1] = system: SW780 cells; assay: Cisplatin / HDAC inhibitor combination, MTT survival with isobologram combination index, SW780; settings: administered at their IC90s; SW780 and HT1376 cells (Table 3)
Procedure: Isobolograms were used to calculate combination indices to indicate synergy at IC50 and IC90, whereby CI<1 denotes synergy.
(§1) Bladder Cancer Cell Lines—SW780 and HT1376 cell lines were grown in RPMI with 10% fetal bovine serum at 37° C. with 5% CO2 and treated with cisplatin, AR-42, sodium butyrate, trichostatin A, and valproic acid at concentrations indicated.
SW780 and HT1376 cells treated with cisplatin, AR-42, a combination cisplatin and AR-42 at a 5:1 ratio, a combination cisplatin and AR-42 in a 20:1 molar ratio, as assessed by MTT incorporation (FIG. 2).

[2] = system: SW780 bladder cancer cell line; assay: Cell viability by MTT incorporation, SW780 bladder cancer cells; settings: read-out: SW780 IC50
Procedure: (§2) SW780 and HT1376 bladder cancer cell lines stained with anti-CD44 and anti-CD49f were examined by flow cytometry. Cells were treated with cisplatin, AR-42, sodium butyrate, valproic acid, and trichostatin A at concentrations indicated for 24 hours and cell viability was determined by MTT incorporation. The table denotes IC50s for SW780 and HT1376 cells to listed agents.
as §1
(§3) SW780 and HT1376 cell lines were treated with cisplatin, AR-42, sodium butyrate, valproic acid, and trichostatin A at various concentrations and cell viability was determined by MTT incorporation (FIG. 1).

[3] = system: HT1376 bladder cancer cell line; assay: Cell viability by MTT incorporation, HT1376 bladder cancer cells; settings: read-out: HT1376 IC50
Procedure: as §2, §1, §3

[4] = Homo sapiens, SW780 cells, 24 hours treatment, MTT incorporation
[5] = Homo sapiens, HT-1376, HT1376 cells, 24 hours treatment, MTT incorporation
[6] = SW780 cells, 24 hours treatment, MTT incorporation
[7] = HT1376 cells, 24 hours treatment, MTT incorporation

Compound: CC(C)[C@H](C(=O)Nc1ccc(C(=O)NO)cc1)c1ccccc1 [AR-42]
synergy with cisplatin [1]: synergy
IC50 [2, 4]: 1.41 µM
IC50 [3, 5]: 1.4 µM

Compound: N.N.[Cl][Pt][Cl] [Cisplatin]
IC50 [2, 6]: 8.5 µM
IC50 [3, 7]: 30.5 µM

Compound: CCCC(=O)[O-].[Na+] [Sodium Butyrate]
synergy with cisplatin [1]: synergy
IC50 ([2]; Homo sapiens, SW780, 24 h): 3780 µM
IC50 ([3]; Homo sapiens, HT-1376, 24 h): 8530 µM

Next, values leading:

IC50 [2, 6]: 0.25 µM
IC50 [3, 7]: 0.12 µM
Compound: CC(/C=C/C(=O)NO)=C\[C@@H](C)C(=O)c1ccc(N(C)C)cc1 [Trichostatin A]

IC50 [2, 4]: 6040 µM
IC50 [3, 5]: 7390 µM
Compound: CCCC(CCC)C(=O)O [Valproic Acid]
